Data published in patent publication US11667602B2, “Compounds and their use” (AstraZeneca AB, priority 2020, dated 2023).
In brackets after ≈: the same amount, converted by molar mass. Read-outs that look alike come from different tables or passages of the source.

Legend:
[1] = Human Liver Microsomal Stability (Test C); format: in vitro ADME
Procedure, shortened: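 CLint (μl/min/mg protein) derived from compound depletion in human liver microsomes following a published standardized early-DMPK protocol; replicate determinations given as arithmetic mean.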

human RXFP1 = target: T1, human RXFP1 (Homo sapiens, UniProt Q9HBX9); experiment: RXFP1 Hu cAMP (Test A); format: cell-based; parameters: expressed in transfected cells; host or cells: Jump-In T-REx CHO-K1 cells (ThermoFisher), induced with 10 ng/ml doxycycline for 24 h
T1 sequence (Q9HBX9 1-757): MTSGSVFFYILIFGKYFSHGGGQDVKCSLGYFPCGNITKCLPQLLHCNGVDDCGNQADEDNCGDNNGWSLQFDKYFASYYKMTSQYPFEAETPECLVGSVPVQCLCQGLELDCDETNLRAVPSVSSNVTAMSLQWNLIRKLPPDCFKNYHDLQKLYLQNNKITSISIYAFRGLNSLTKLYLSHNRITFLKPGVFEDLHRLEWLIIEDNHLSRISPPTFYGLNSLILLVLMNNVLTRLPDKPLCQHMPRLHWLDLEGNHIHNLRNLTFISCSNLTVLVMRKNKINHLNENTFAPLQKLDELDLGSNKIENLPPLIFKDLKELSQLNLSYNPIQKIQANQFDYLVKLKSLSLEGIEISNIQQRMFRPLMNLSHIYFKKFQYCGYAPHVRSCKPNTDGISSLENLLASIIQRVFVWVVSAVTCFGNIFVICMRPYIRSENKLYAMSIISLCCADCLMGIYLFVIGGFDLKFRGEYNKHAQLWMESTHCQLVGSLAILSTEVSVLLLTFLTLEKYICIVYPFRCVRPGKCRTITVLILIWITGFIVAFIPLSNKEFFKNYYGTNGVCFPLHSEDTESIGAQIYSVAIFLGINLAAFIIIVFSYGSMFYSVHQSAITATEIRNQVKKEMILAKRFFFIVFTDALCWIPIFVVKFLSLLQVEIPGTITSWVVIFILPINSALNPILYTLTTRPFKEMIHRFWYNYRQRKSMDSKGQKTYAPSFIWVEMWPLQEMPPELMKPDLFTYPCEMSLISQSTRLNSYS
Procedure, shortened: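 CHO-K1 (Jump-In T-REx), RXFP1 induced w/ 10 ng/ml doxycycline 24 h, cryopreserved. 0.5 mM IBMX final. cAMP by HTRF, 2 h RT, std curve.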

Solubility (Test F) = format: physicochemical; details: arithmetic mean if run multiple times
Protocol: The assay was conducted according to the Solubility Assay described in pages 164-167 of Wernevik, J. et al., “A Fully Integrated Assay Panel for Early Drug Metabolism and Pharmacokinetics Profiling”, Assay and Drug Development Technologies, 2020, 18(4), 157-179. Data are reported in Table 36 as solubility ([…]. Where the assay was run multiple times for the same compound, the arithmetic mean is reported.

[2] = Rat Hepatocyte Stability (Test E); format: in vitro ADME; details: geometric mean if run multiple times
Procedure, shortened: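 Intrinsic clearance in rat hepatocytes, expressed as μl/min/10^6 cells, following the literature integrated DMPK panel method. Repeat determinations combined as geometric mean.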

[3] = Human Hepatocyte Stability (Test D); format: in vitro ADME; details: geometric mean if run multiple times; for hepatocyte CLint at 1 µM: cryopreserved pooled human hepatocytes (LiverPool 10-Donor)
Procedure, shortened: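 Intrinsic clearance (μL/min/10^6 cells), derived as kV/N from the log-linear loss of parent compound. Compound incubated at 37 °C with cryopreserved pooled human hepatocytes, 0.25×10^6 cells in 0.25 mL L-15; dosing solution 100 μM in acetonitrile. Singlicate incubations, cassette LC-MS; repeats reported as geometric mean.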

[4] = Human Plasma Protein Binding (Test B); format: in vitro ADME; details: fraction unbound (fu)
Procedure, shortened: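 Values given as % free (fu) in human plasma, using the method of Wernevik et al. (2020). For compounds tested more than once, the arithmetic mean is given.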

[5] = RXFP1 Hu cAMP, read-out: Test A EC50

microsomal CLint ([1]; human, liver microsomes) [µL/min/mg]	Test A Sinf (human RXFP1; RXFP1 Hu cAMP) [%]	EC50 (human RXFP1; [5]) [nM]	solubility (Solubility (Test F)) [µM]	hepatocyte CLint ([2]; rat, hepatocytes) [µL/min/1e6 cells]	hepatocyte CLint at 1 µM ([3]; human) [µL/min/1e6 cells]	Test B Human Plasma Protein Binding (% free) [4] [% free]	SMILES	microsomal CLint ([1]; human liver microsomes) [µL/min/mg]	EC50 (human RXFP1; Test A EC50, RXFP1 Hu cAMP) [nM]	hepatocyte CLint ([2]; rat hepatocytes) [µL/min/1e6 cells]	hepatocyte CLint at 1 µM [3] [µL/min/1e6 cells]	Test C Human Liver Microsomal Stability Clint ([1]; human liver microsomes) [µL/min/mg]	Test E Rat Hepatocyte Stability Clint ([2]; rat hepatocytes) [μL/min/10^6 cells]	Test D Human Hepatocyte Stability Clint ([3]; human hepatocytes) [μL/min/10^6 cells]
200	128	100	13 (≈ 7.9 µg/mL)	96	28	0.51	COc1cc(F)c(O[C@H]2CC[C@@H](C(N)=O)CC2)cc1C(=O)N[C@H]1[C@@H](C(=O)Nc2ccc(F)c(C(F)(F)F)c2)[C@@H]2C=C[C@H]1C2 [Example 499, (1S,2S,3R,4R)-3-(5-(((1s,4S)-4-Carbamoylcyclohexyl)oxy)-4-fluoro-2-methoxybenzamido)-N-(4-fluoro-3-(trifluoromethyl)phenyl)bicyclo[2.2.1]hept-5-ene-2-carboxamide]							
5.4	126	8.4	37 (≈ 20.8 µg/mL)	30	11	0.49	COc1cc(F)c(O[C@H]2CC[C@@](C)(C(=O)O)CC2)cc1C(=O)Nc1cc(Cl)ccc1C(=O)NCC1(C)CCC1 [Example 155, (1s,4s)-4-(5-((5-Chloro-2-(((1-methylcyclobutyl)methyl)carbamoyl)phenyl)carbamoyl)-2-fluoro-4-methoxyphenoxy)-1-methylcyclohexane-1-carboxylic acid]							
4.7	110	88	690 (≈ 446 µg/mL)	9.3	6.5	<0.30	COc1cc(F)c(-c2ccc(CC(=O)O)cc2)cc1C(=O)N[C@H]1[C@@H](C(=O)Nc2cccc(S(=O)(=O)C(F)(F)F)c2)[C@@H]2C=C[C@H]1C2 (racemic) [Example 234]							
120	107	120	2 (≈ 1.26 µg/mL)	38	32	<0.26	COc1cc(F)c(-c2ccc(C(N)=O)cc2)cc1C(=O)N[C@H]1[C@@H](C(=O)Nc2cccc(S(=O)(=O)C(F)(F)F)c2)[C@@H]2C=C[C@H]1C2 [Example 270, 6-Fluoro-4-methoxy-N3-((1R,2R,3S,4S)-3-((3-((trifluoromethyl)sulfonyl)phenyl)carbamoyl)bicyclo[2.2.1]hept-5-en-2-yl)-[1,1′-biphenyl]-3,4′-dicarboxamide]							
27	103	20	830 (≈ 454 µg/mL)	22	4.8	3.8	CCC(C)(C)CNC(=O)[C@H]1[C@@H]2CC[C@@H](C2)[C@H]1NC(=O)c1cc(O[C@H]2CC[C@@](C)(C(=O)O)CC2)c(F)cc1OC [Example 37, (1S,4s)-4-(5-(((1S,2R,3S,4R)-3-((2,2-Dimethylbutyl)carbamoyl)bicyclo[2.2.1]heptan-2-yl)carbamoyl)-2-fluoro-4-methoxyphenoxy)-1-methylcyclohexane-1-carboxylic acid]							
15	98	220	640 (≈ 416 µg/mL)	17	22	<0.32	COc1cc(F)c(-c2ccc(C(=O)O)cc2)cc1C(=O)N[C@H]1[C@@H](C(=O)Nc2ccc(F)c(S(=O)(=O)C(F)(F)F)c2)[C@@H]2C=C[C@H]1C2 (racemic) [Example 296, rac-2′-Fluoro-5′-(((1R,2R,3S,4S)-3-((4-fluoro-3-((trifluoromethyl)sulfonyl)phenyl)carbamoyl)bicyclo[2.2.1]hept-5-en-2-yl)carbamoyl)-4′-methoxy-[1,1′-biphenyl]-4-carboxylic acid]							
16	98	180	6.5 (≈ 3.88 µg/mL)	8	4	0.18	COc1cc(F)c(O[C@H]2CC[C@@H](C(=O)O)CC2)cc1C(=O)NC1=C(C(=O)Nc2ccc(F)c(C(F)(F)F)c2)CCCC1 [Example 213, (1s,4s)-4-(2-Fluoro-5-((2-((4-fluoro-3-(trifluoromethyl)phenyl)carbamoyl)cyclohex-1-en-1-yl)carbamoyl)-4-methoxyphenoxy)cyclohexane-1-carboxylic acid]							
20	104	20	1000 (≈ 564 µg/mL)	19	8.5	6	COc1cc(C#N)c(O[C@H]2CC[C@@](C)(C(=O)O)CC2)cc1C(=O)NC1C2C=CC(CC2)C1C(=O)NCC1(C)CCC1 (single isomer, unassigned) [Example 540, (1R,4s)-4-(2-Cyano-4-methoxy-5-(((1R*,2S*,3R*,4S*)-3-(((1-methylcyclobutyl)methyl)carbamoyl)bicyclo[2.2.2]oct-5-en-2-yl)carbamoyl)phenoxy)-1-methylcyclohexane-1-carboxylic acid]							
30	127	300	940 (≈ 593 µg/mL)	16	17	1.9	COc1cc(F)c(O[C@H]2CC[C@@H](C(=O)O)CC2)cc1C(=O)N[C@@H]1CCC[C@@H]1C(=O)Nc1cccc(S(=O)(=O)C(F)(F)F)c1 [Example 490]							
25	106	79	890 (≈ 591 µg/mL)	12	4.3	8.6	COc1cc(F)c(O[C@H]2CC[C@@](C)(C(=O)O)CC2)cc1C(=O)N[C@@H]1[C@H]2CC[C@H](C2)[C@@H]1C(=O)N[C@@H]1CCN(S(=O)(=O)C(F)(F)F)C1 [Example 605]							

SMILES	microsomal CLint ([1]; human, liver microsomes) [µL/min/mg]	Test A Sinf (human RXFP1; RXFP1 Hu cAMP) [%]	EC50 (human RXFP1; [5]) [nM]	solubility (Solubility (Test F)) [µM]	hepatocyte CLint ([2]; rat, hepatocytes) [µL/min/1e6 cells]	hepatocyte CLint at 1 µM ([3]; human) [µL/min/1e6 cells]	Test B Human Plasma Protein Binding (% free) [4] [% free]	microsomal CLint ([1]; human liver microsomes) [µL/min/mg]	EC50 (human RXFP1; Test A EC50, RXFP1 Hu cAMP) [nM]	hepatocyte CLint ([2]; rat hepatocytes) [µL/min/1e6 cells]	hepatocyte CLint at 1 µM [3] [µL/min/1e6 cells]	Test C Human Liver Microsomal Stability Clint ([1]; human liver microsomes) [µL/min/mg]	Test E Rat Hepatocyte Stability Clint ([2]; rat hepatocytes) [μL/min/10^6 cells]	Test D Human Hepatocyte Stability Clint ([3]; human hepatocytes) [μL/min/10^6 cells]
COc1cc(C#N)c(OC2CCC(C)(C(=O)O)CC2)cc1C(=O)NC1C(C(=O)NCC2(C)CCC2)C2CCC1N2CCC(F)(F)F (single isomer, unassigned) [Example 536, (1R,4s)-4-(2-Cyano-4-methoxy-5-(((1S*,2S*,3R*,4R*)-3-(((1-methylcyclobutyl)methyl)carbamoyl)-7-(3,3,3-trifluoropropyl)-7-azabicyclo[2.2.1]heptan-2-yl)carbamoyl)phenoxy)-1-methylcyclohexane-1-carboxylic acid]		97		420 (≈ 272 µg/mL)			3.3	250	5.1	43	130			
COc1cc(F)c(O[C@H]2CC[C@@](C)(C(=O)O)CC2)cc1C(=O)N[C@H]1C[C@@H](OC)C[C@H]1C(=O)Nc1cccc(S(=O)(=O)C(F)(F)F)c1 (stereo in doubt) [Example 523, (1R,4s)-4-(2-fluoro-4-methoxy-5-(((1S*,2R*,4S*)-4-methoxy-2-((3-((trifluoromethyl)sulfonyl)phenyl)carbamoyl)cyclopentyl)carbamoyl)phenoxy)-1-methylcyclohexane-1-carboxylic acid]		95	270	920 (≈ 621 µg/mL)			4					>300	34	49
